According to publication PMC9588787, “Exploring the In situ pairing of human galectins toward synthetic O-mannosylated core M1 glycopeptides of α-dystroglycan” (Scientific Reports, 2022):
Entries after “also recorded” stand apart in the source; their conditions may differ. One block for each compound: values may come before it. Where no end group is shown, it is not given here.

How the values were obtained:
Gal-1, -3, -4, and -9 = assay: Glycopeptide microarray, statements for the galectin test panel as a whole; format: binding, human; conditions: compounds immobilised at 20 and/or 200 μM; galectins 0.10-32.0 µg/mL, PBS pH 7.4, no reducing agent
Experimental: (§1) Following our reported optimized protocol, the binding profile of lectins were investigated using evanescent-field fluorescence-assisted microarray technology to directly monitor the interaction without the wash and dry-up process and rapid exchange of protein solution to evaluate concentration dependence, 0.10–32.0 µg/mL protein. The AO/PC-copolymer microarray slides were deprotected using 2N HCl treatment overnight at rt, rinsed with MilliQ H2O, and dried by centrifugation. […]
(§2) A silicon rubber sheet with six chambers was attached to the printed slide. […] After 1 h of incubation with the lectin solution at rt in a humidified chamber, the slide was rinsed with washing buffer (reaction buffer with containing 0.05% (v/v) Tween-20) and fluorescence intensity was measured with GlycoStation System. To determine whether additional interactions will be detected at higher lectin concentrations, the reaction buffer solution was carefully removed and replaced with the next lectin test concentration, incubated for 5 min at rt, washed with reaction buffer and then fluorescence intensity was obtained. […]
(§3) Images of slides were captured in the presence of reaction buffer. The fluorescexcelence intensities obtained were analyzed using ArrayVision 8.0 (GE Healthcare). […]

Gal-1 [1] = assay: Glycopeptide microarray lectin binding assay, Gal-1; parameters: species or system human; conditions: compounds immobilised at 20 and/or 200 μM, quadruplets; labelled Gal-1 0.10-32.0 µg/mL, PBS pH 7.4, no reducing agent, ambient air (partially oxidizing)
Experimental: Following our reported optimized protocol, the binding profile of lectins were investigated using evanescent-field fluorescence-assisted microarray technology to directly monitor the interaction without the wash and dry-up process and rapid exchange of protein solution to evaluate concentration dependence, 0.10–32.0 µg/mL protein. The AO/PC-copolymer microarray slides were deprotected using 2N HCl treatment overnight at rt, rinsed with MilliQ H2O, and dried by centrifugation. Then, test compounds were robotically printed using Arduino-based CNC machine handcrafted robot in quadruplets at two concentrations (20 and 200 µM) in 25 mM AcOH-Pyr (pH 5.0), 0.0025% (w/v) Triton X-100 under constant condition (temperature: 20–25 °C and humidity: 35–45 RH). A 25 µg/mL Cyanin3-keto-BSA (Cy3-keto-BSA) was also printed in the slide as grid. Subsequently, the slide was incubated at 80 °C for 1 h to complete the oxime bond formation. Washed once with Milli-Q H2O and dried by centrifugation at 2,000 rpm for 2 min.
A silicon rubber sheet with six chambers was attached to the printed slide. Next, slide was pretreated with reaction buffer {Phosphate-Buffered Saline solution (PBS, 1X) [10 mM Na2HPO4, 1.8 mM KH2PO4, 2.7 mM KCl, 137 mM NaCl] pH7.4 containing 0.05% (v/v) Tween-20} for 15 min and dried by centrifugation. The PBS (with or without 10 mM DTT) solutions of galectin were prepared and maintained at a cold ice bath before use. Thereafter, a cover glass was set on each chamber and 12 µL of 0.10 µg/mL lectin solution in reaction buffer was added through the gap of the slide and cover. After 1 h of incubation with the lectin solution at rt in a humidified chamber, the slide was rinsed with washing buffer (reaction buffer with containing 0.05% (v/v) Tween-20) and fluorescence intensity was measured with GlycoStation System. To determine whether additional interactions will be detected at higher lectin concentrations, the reaction buffer solution was carefully removed and replaced with the next lectin test concentration, incubated for 5 min at rt, washed with reaction buffer and then fluorescence intensity was obtained. This step was repeated until all the chosen test concentrations were completed (0.32-, 1.00-, 3.20-, 10.0-, and 32.0 µg/mL).
Images of slides were captured in the presence of reaction buffer. The fluorescexcelence intensities obtained were analyzed using ArrayVision 8.0 (GE Healthcare). For each spot, background correction was applied to get the net intensity, and the average relative fluorescence unit (RFU) was plotted using Microsoft Excel for Microsoft 365. The lectin specificity was identified from high and low RFU values, the error bars being the standard deviation.

Gal-1, Gal-4, and Gal-9 = assay: Microarray inhibition experiment (methyl-Lac, cellobiose, maltose, acetylated peptide 4); format: binding, human; conditions: for Gal-1 interaction with immobilised compound upon addition of methyl-Lac: Gal-1, Fig. 5b, 2.00 µM to 200 mM methyl-Lac; for Effect of soluble inhibitor on galectin binding to immobilised glycopeptides: 10 µg/mL galectin, sugars 2.00 µM to 200 mM, acetylated peptide 4 100 µM to 5.00 mM
Experimental: After 30 min of incubation with the galectin-inhibitor solution at rt in a humidified chamber, the slide was rinsed with washing buffer and fluorescence intensity was measured with GlycoStation System. […] Slide images were captured and analyzed as described above.

[2] = tested on: laminin-111, -121, -211, and -221 with unlabeled Gal-1; assay: Laminin–Gal-1 binding assay (trans-bridging on microarray); parameters: species or system human; conditions: 200 μM immobilised compounds; 0.10-32.0 µg/mL Cy3-laminin–unlabeled Gal-1, 32.0 µg/mL extended 30 min
Experimental: A 12 µL of premixed Cy3-labeled human recombinant laminin (BroadPharm and Biolamina, respectively) and unlabeled-Gal-1 with final concentration of 0.10 µg/mL was added to the printed test compounds. After 1 h of incubation with the laminin-galectin solution at rt in a humidified chamber, the slide was rinsed with washing buffer and fluorescence intensity was measured with GlycoStation System. To determine whether additional interactions will be detected at higher laminin-Gal-1 concentrations, the reaction buffer solution was carefully removed and replaced with the next test concentration, incubated for 5 min at rt, washed with reaction buffer and then fluorescence intensity was obtained. This step was repeated until all the chosen test concentrations were completed (0.32-, 1.00-, 3.20-, 10.0-, and 32.0 µg/mL). For weak interaction, incubation with 32.0 µg/mL of laminin-Gal-1 solution was extended for 30 min. Slide images were captured and analyzed as described above.

Gal-9 = assay: Glycopeptide microarray lectin binding assay, Gal-9; parameters: species or system human; conditions: compounds immobilised at 20 and/or 200 μM; Gal-9 0.10-32.0 µg/mL, PBS pH 7.4, no reducing agent
Experimental: as §1, §2, §3

Gal-4 = assay: Glycopeptide microarray lectin binding assay, Gal-4; parameters: species or system human; conditions: compounds immobilised at 20 and/or 200 μM; Gal-4 0.10-32.0 µg/mL, PBS pH 7.4, no reducing agent
Experimental: as §1, §2, §3

Gal-3 [3] = assay: Glycopeptide microarray lectin binding assay, Gal-3; parameters: species or system human; conditions: compounds immobilised at 20 and/or 200 μM; Gal-3 0.10-32.0 µg/mL, PBS pH 7.4, no reducing agent
Experimental: as §1, §2, §3

Gal-1 [4] = assay: 1H-15N HSQC NMR chemical shift perturbation of 15N-labeled Gal-1; format: binding, human; conditions: tested concentrations, 0.05 up to 64 equivalents of ligand; 100 µM Gal-1, pH 6.9, 10 mM DTT
Experimental: ^15N Gal-1 was expressed in Escherichia coli cells BL21(DE3) from pET-GST/TEV-LGVLFQGP-hLGALS1 vector (VectorBuilder, Japan). The component cells were transformed with an expression vector utilizing the heat shock method. After one night of incubation on LB Agar plate (containing 100 μg/mL ampicillin), a colony harboring the expression construct was selected and then inoculated unto 5 mL Luria Broth (LB) with antibiotic overnight at 37 °C with shaking. The bacterial pellet was then resuspended to a fresh 500 mL M9-labeled (^15N-NH4Cl as nitrogen source) medium containing ampicillin. After that, culture was grown at 37 °C for at least 4 h until OD600 = 0.6–1.2. The cells were then induced with 0.5 mM isopropyl-β-D-1-thiogalactopyranoside (IPTG) overnight at 25 °C. Bacteria expressing ^15N Gal-1 was lysed with a sonicator (for 5 min, 25% duty cycle. 5 output control) in buffer containing 50 mM PBS, pH 7.4, 150 mM NaCl, 2 mM DTT. […] Lectin-binding activity was analyzed by 15N-HQSC with methyl-Lac. […]
The ^15N-labeled Gal-1 was prepared at 100 µM concentration in 20 mM potassium phosphate buffer at pH 6.9, 50 µM EDTA and 10 mM DTT, made up using H2O/D2O (95:5%). […] Raw data were converted using TopSpin 4.1.3 and were analyzed using NMRFAM-Sparky[71]. […] The perturbation pattern of the Gal-1 (PDB ID: 1GZW) was analyzed and visualized by PyMOL 2.5.0 (http://www.pymol.org).

laminins = conditions: basal lamina; read-out: Kd of Gal-1 binding to poly-LacNAc structures of laminins; cited from earlier work
From the text: In the basal lamina, Gal-1 binds to the poly-LacNAc structures of laminins (Kd≈10^−6 M), to maintain glycan recognizing function of Gal-1 in the ECM[61]. During muscle repair, Gal-1 binds directly to laminin and α7β1 integrin modulating the late myoblast fusion. In addition, Gal-1 can dissociate from laminin and cross-link olfactory neurons, forming ne ...

Gal-3 [5] = conditions: read-out: Kd of interaction with Gal-3; cited from earlier work
From the text: The glycan-CBP interactions are influenced by not only the type of glycan but also the spatial orientation, carrier scaffold, accessibility, density, and spacing of sugar moieties along the glycoconjugate, to obtain optimum fit within the binding pocket of the receptors[37],[40],[44].

Binding of the tested galectins (panel statement), microarray signal intensity (Gal-1, -3, -4, and -9): high interaction
Gal-1 binding, microarray signal intensity (RFU) (Gal-1 [1]): bound
Compound: 5-oxo-hexanoyl-TRGAIIQTPTLGPIQPTRV -NH2 [compound 26, α-DG glycopeptide with heterogeneous glycans: LacNAc core M1 and core M1]
Galectin interaction with immobilised compound in the presence of methyl-Lac (Gal-1, Gal-4, and Gal-9; 200 μM immobilised compounds, 10 µg/mL galectin with 2.00 µM to 200 mM methyl-Lac): significantly reduced interaction

Gal-1 trans-bridging of Cy3-laminin to immobilised compound, signal intensity [2]: decrease in the trans-bridging activity
Gal-4 binding, microarray signal intensity (RFU) (Gal-4): significant reduction in the affinity
Compound: 5-oxo-hexanoyl-TRGAIIQTPTLGPIQPTRV -NH2 [compound 28, α-DG glycopeptide with heterogeneous glycans: sialyl-LacNAc core M1 and LacNAc core M1]
Gal-1 binding, microarray signal intensity (RFU) (Gal-1 [1]): bound; also recorded: diminished Gal-1 binding

Gal-3 binding, microarray signal intensity (RFU) (Gal-3 [3]): did not result in higher intensity
Binding of the tested galectins (panel statement), microarray signal intensity (Gal-1, -3, -4, and -9): lesser interaction
Compound: 5-oxo-hexanoyl-TRGAIIQTPTLGPIQPTRV -NH2 [compound 18, tris-LacNAc terminated α-DG glycopeptide]

Effect of soluble inhibitor on galectin binding to immobilised glycopeptides (Gal-1, Gal-4, and Gal-9): minimal effect on the binding
Compound: 32: acetylated N-terminus unglycosylated α-DG peptide corresponding to 4 (Ac-TRGAIIQTPTLGPIQPTRV) [compound 32]
Chemical shift perturbation of 15N Gal-1 over the titration (Gal-1 [4]): failed to induce any significant deviation in the chemical shift

Effect of soluble inhibitor on galectin binding to immobilised glycopeptides (Gal-1, Gal-4, and Gal-9): significantly reduced interaction
Compound: CO[C@@H]1O[C@H](CO)[C@@H](O[C@@H]2O[C@H](CO)[C@H](O)[C@H](O)[C@H]2O)[C@H](O)[C@H]1O [methyl-Lac, methyl-β-lactoside, reference compound]
Chemical shift perturbation of 15N Gal-1 over the titration (Gal-1 [4]): shifted the ^1H-^15N HSQC signals corresponding to the residues on S3–L6 regions

The remaining lines, values behind:

Compound: 5-oxo-hexanoyl-TRGAIIQTPTLGPIQPTRV -NH2 [compound 4, unglycosylated α-DG peptide backbone (…) with ketone linker]
Gal-1 trans-bridging of Cy3-laminin to immobilised compound, signal intensity [2]: could anchor laminins
Gal-1 binding, microarray signal intensity (RFU) (Gal-1 [1]): binding was observed; also recorded: interact
Gal-9 binding, microarray signal intensity (RFU) (Gal-9): interact
Gal-4 binding, microarray signal intensity (RFU) (Gal-4): interact

Compound: 5-oxo-hexanoyl-TRGAIIQTPTLGPIQPTRV -NH2 [compound 6, mono-core M1 α-DG glycopeptide]
Gal-1 trans-bridging of Cy3-laminin to immobilised compound, signal intensity [2]: remarkable signal intensities
Gal-1 binding, microarray signal intensity (RFU) (Gal-1 [1]): did not show significant interaction
Gal-1 interaction with immobilised compound upon addition of methyl-Lac (Gal-1, Gal-4, and Gal-9): enhanced interaction

Compound: 5-oxo-hexanoyl-TRGAIIQTPTLGPIQPTRV -NH2 [compound 11, tris-core M1 α-DG glycopeptide]
Gal-1 binding, microarray signal intensity (RFU) (Gal-1 [1]): notable decrease in binding interaction

Compound: O=C[C@H](O)[C@@H](O)[C@H](O[C@@H]1O[C@H](CO)[C@@H](O)[C@H](O)[C@H]1O)[C@H](O)CO [cellobiose, reference compound]
Effect of soluble inhibitor on galectin binding to immobilised glycopeptides (Gal-1, Gal-4, and Gal-9): minimal effect on the binding

Compound: Gal-1: prototype homodimeric human galectin
Kd (laminins): ~1 µM

Compound: 5-oxo-hexanoyl-TRGAIIQTPTLGPIQPTRV -NH2 [compound 15, bis-LacNAc core M1 α-DG glycopeptide, consecutive glycosylation sites]
Gal-3 binding, microarray signal intensity (RFU) (Gal-3 [3]): stronger affinity

Compound: Galβ1,3GalNAcα1-O-Ser/Thr [TF antigen]
Kd (Gal-3 [5]): 245 µM

Compound: 5-oxo-hexanoyl-TRGAIIQTPTLGPIQPTRV -NH2 [compound 5, mono-core M1 α-DG glycopeptide]
Gal-1 trans-bridging of Cy3-laminin to immobilised compound, signal intensity [2]: remarkable signal intensities
Gal-1 binding, microarray signal intensity (RFU) (Gal-1 [1]): did not show significant interaction
Gal-1 interaction with immobilised compound upon addition of methyl-Lac (Gal-1, Gal-4, and Gal-9): enhanced interaction
